In PubChem BioAssay (NCI):
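48-hour exposure; five concentrations; linearly interpolated endpoints. Abbreviation: GI50, concentration required for 50% inhibition of growth. TGI is the concentration that stops growth completely.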

Columns and labels:
Assay in all cases: NCI anticancer screen, dose series, 48 h
SK-MEL-28 melanoma = test system: SK-MEL-28 melanoma
SN12C renal = test system: SN12C renal
HL-60(TB) leukemia = test system: HL-60(TB) leukemia
HOP-92 NSCLC = test system: HOP-92 NSCLC
HS 578T breast = test system: HS 578T breast
UACC-257 melanoma = test system: UACC-257 melanoma
CCRF-CEM leukemia = test system: CCRF-CEM leukemia
CAKI-1 renal = test system: CAKI-1 renal
NCI-H23 lung = test system: NCI-H23 lung
U251 CNS = test system: U251 CNS
OVCAR-4 ovarian = test system: OVCAR-4 ovarian
NCI-H522 lung = test system: NCI-H522 lung
MDA-MB-231 breast = test system: MDA-MB-231 breast
NCI/ADR-RES ovarian = test system: NCI/ADR-RES ovarian
NCI-H460 lung = test system: NCI-H460 lung
HCT-15 colon = test system: HCT-15 colon
HT29 colon = test system: HT29 colon
T-47D breast = test system: T-47D breast
HCC-2998 colon = test system: HCC-2998 colon
MDA-MB-435 = test system: MDA-MB-435
HOP-62 NSCLC = test system: HOP-62 NSCLC
PC-3 prostate = test system: PC-3 prostate
SK-OV-3 ovarian = test system: SK-OV-3 ovarian
A549 NSCLC = test system: A549 NSCLC
MALME-3M melanoma = test system: MALME-3M melanoma
OVCAR-5 ovarian = test system: OVCAR-5 ovarian
NCI-H226 lung = test system: NCI-H226 lung
MCF7 breast = test system: MCF7 breast
UO-31 renal = test system: UO-31 renal
SF-295 CNS = test system: SF-295 CNS
SK-MEL-2 melanoma = test system: SK-MEL-2 melanoma
EKVX NSCLC = test system: EKVX NSCLC
MOLT-4 leukemia = test system: MOLT-4 leukemia
RXF 393 renal = test system: RXF 393 renal
SF-268 CNS = test system: SF-268 CNS
SNB-19 CNS = test system: SNB-19 CNS
TK-10 renal = test system: TK-10 renal
786-0 renal = test system: 786-0 renal
A498 renal = test system: A498 renal
OVCAR-8 ovarian = test system: OVCAR-8 ovarian
M14 melanoma = test system: M14 melanoma
SK-MEL-5 melanoma = test system: SK-MEL-5 melanoma
UACC-62 melanoma = test system: UACC-62 melanoma
K-562 leukemia = test system: K-562 leukemia
IGROV1 ovarian = test system: IGROV1 ovarian
ACHN renal = test system: ACHN renal
SR leukemia = test system: SR leukemia

Structure (SMILES): CC1(C)CC[C@]2(C(=O)Nc3ccccn3)CC[C@]3(C)C(=CC[C@@H]4[C@@]5(C)C/C(=C/c6ccncc6)C(=O)C(C)(C)[C@@H]5CC[C@]43C)[C@@H]2C1
- GI50 (SK-MEL-28 melanoma): 2.28 µM
- TGI (SK-MEL-28 melanoma): 6.59 µM
- GI50 (SN12C renal): 2.57 µM
- TGI (SN12C renal): > 100 µM
- GI50 (HL-60(TB) leukemia): 1.24 µM
- TGI (HL-60(TB) leukemia): 5.68 µM
- GI50 (HOP-92 NSCLC): 1.24 µM
- TGI (HOP-92 NSCLC): 7 µM
- GI50 (HS 578T breast): 2.96 µM
- TGI (HS 578T breast): > 100 µM
- GI50 (UACC-257 melanoma): 2.2 µM
- TGI (UACC-257 melanoma): > 100 µM
- GI50 (CCRF-CEM leukemia): 2.3 µM
- TGI (CCRF-CEM leukemia): > 100 µM
- GI50 (CAKI-1 renal): 2.69 µM
- TGI (CAKI-1 renal): > 100 µM
- GI50 (NCI-H23 lung): 3.18 µM
- TGI (NCI-H23 lung): > 100 µM
- GI50 (U251 CNS): 1.82 µM
- TGI (U251 CNS): 4.32 µM
- GI50 (OVCAR-4 ovarian): 2.9 µM
- TGI (OVCAR-4 ovarian): > 100 µM
- GI50 (NCI-H522 lung): 2.09 µM
- TGI (NCI-H522 lung): 27.7 µM
- GI50 (MDA-MB-231 breast): 2.92 µM
- TGI (MDA-MB-231 breast): 19.5 µM
- GI50 (NCI/ADR-RES ovarian): 4.48 µM
- TGI (NCI/ADR-RES ovarian): > 100 µM
- GI50 (NCI-H460 lung): 1.51 µM
- TGI (NCI-H460 lung): 3.9 µM
- GI50 (HCT-15 colon): 1.85 µM
- TGI (HCT-15 colon): 6.63 µM
- GI50 (HT29 colon): 2.17 µM
- TGI (HT29 colon): > 100 µM
- GI50 (T-47D breast): 1.68 µM
- TGI (T-47D breast): > 100 µM
- GI50 (HCC-2998 colon): 1.81 µM
- TGI (HCC-2998 colon): 4.82 µM
- GI50 (MDA-MB-435): 2.58 µM
- TGI (MDA-MB-435): > 100 µM
- GI50 (HOP-62 NSCLC): 4.41 µM
- TGI (HOP-62 NSCLC): > 100 µM
- GI50 (PC-3 prostate): 0.624 µM
- TGI (PC-3 prostate): > 100 µM
- GI50 (SK-OV-3 ovarian): > 100 µM
- TGI (SK-OV-3 ovarian): > 100 µM
- GI50 (A549 NSCLC): 2 µM
- TGI (A549 NSCLC): > 100 µM
- GI50 (MALME-3M melanoma): 2.25 µM
- TGI (MALME-3M melanoma): 6.15 µM
- GI50 (OVCAR-5 ovarian): 4.14 µM
- TGI (OVCAR-5 ovarian): > 100 µM
- GI50 (NCI-H226 lung): 1.97 µM
- TGI (NCI-H226 lung): 6.04 µM
- GI50 (MCF7 breast): 0.938 µM
- TGI (MCF7 breast): 15.3 µM
- GI50 (UO-31 renal): 1.38 µM
- TGI (UO-31 renal): 2.74 µM
- GI50 (SF-295 CNS): 2.37 µM
- TGI (SF-295 CNS): 29.3 µM
- GI50 (SK-MEL-2 melanoma): 3.63 µM
- TGI (SK-MEL-2 melanoma): > 100 µM
- GI50 (EKVX NSCLC): 3.8 µM
- TGI (EKVX NSCLC): > 100 µM
- GI50 (MOLT-4 leukemia): 2.27 µM
- TGI (MOLT-4 leukemia): > 100 µM
- GI50 (RXF 393 renal): 1.67 µM
- TGI (RXF 393 renal): 3.37 µM
- GI50 (SF-268 CNS): 9.45 µM
- TGI (SF-268 CNS): > 100 µM
- GI50 (SNB-19 CNS): 5.82 µM
- TGI (SNB-19 CNS): > 100 µM
- GI50 (TK-10 renal): 5.75 µM
- TGI (TK-10 renal): > 100 µM
- GI50 (786-0 renal): 2.88 µM
- TGI (786-0 renal): > 100 µM
- GI50 (A498 renal): 2.05 µM
- TGI (A498 renal): 5.18 µM
- GI50 (OVCAR-8 ovarian): 3.76 µM
- TGI (OVCAR-8 ovarian): > 100 µM
- GI50 (M14 melanoma): 2.85 µM
- TGI (M14 melanoma): > 100 µM
- GI50 (SK-MEL-5 melanoma): 1.59 µM
- TGI (SK-MEL-5 melanoma): 3.1 µM
- GI50 (UACC-62 melanoma): 1.85 µM
- TGI (UACC-62 melanoma): 8.89 µM
- GI50 (K-562 leukemia): 1.78 µM
- TGI (K-562 leukemia): > 100 µM
- GI50 (IGROV1 ovarian): 3.12 µM
- TGI (IGROV1 ovarian): 67.3 µM
- GI50 (ACHN renal): 2.08 µM
- TGI (ACHN renal): 5.98 µM
- GI50 (SR leukemia): 0.702 µM
- TGI (SR leukemia): > 100 µM
